# “Also recorded” adds a separate entry of the source. Read-outs that look alike come from different tables or passages of the source.
# Experiments:
# [1] = system: 18f-NLuc reporter virus; assay: microbe, parasite or virus in culture; assay type: cell-based, Hepatitis A virus; details: Hepatovirus A, Huh-7.5.1, 72 h, read-out: Normalized HAV production
# [2] = system: HAV; assay: microbe, parasite or virus in culture; assay type: cell-based, Hepatitis A virus; details: Hepatovirus A; 30 nM, Huh-7.5.1 cells; read-out: Inhibition of infectious virus released
# [3] = system: HAV; assay: microbe, parasite or virus in culture; assay type: cell-based, Hepatitis A virus; details: Hepatovirus A, read-out: IC50, HAV replication by RT-qPCR
# [4] = system: 18f-NLuc reporter virus; assay: microbe, parasite or virus in culture; assay type: cell-based, Hepatitis A virus; details: Hepatovirus A, HEK-293T, read-out: IC50, HAV replication by NLuc
# Procedure: Cells were lysed in 1× passive lysis buffer (Promega, #E1941) for 15 min at room temperature, then lysates were transferred to opaque white 96-well plates (Corning, #3912). NLuc activity was quantified using the NLuc GLOW Assay kit (Nanolight Technology, #325), and FLuc assays were carried out with the Luciferase Assay System (Promega, E1500). Luminescence was measured using a Biotek Synergy II multi-mode plate reader (BioTek Instruments).
# [5] = system: 18f-NLuc reporter virus; assay: microbe, parasite or virus in culture; assay type: cell-based, Hepatitis A virus; details: Hepatovirus A, FRhK-4, 48 h, read-out: IC50, HAV replication by NLuc
# [6] = system: PV1-NLuc; assay: microbe, parasite or virus in culture; assay type: cell-based, type 1 poliovirus; details: Enterovirus C, Huh7.5, 16 h, read-out: IC50, PV1-NLuc replication
# [7] = system: PV1-NLuc; assay: microbe, parasite or virus in culture; assay type: cell-based, type 1 poliovirus; details: Enterovirus C, FRhK-4, 16 h, read-out: IC50, PV1-NLuc replication
# [8] = system: 18f-NLuc reporter virus; assay type: cell-based, Hepatitis A virus
# [9] = system: HAV-FLuc; assay: microbe, parasite or virus in culture; assay type: cell-based, Hepatitis A virus
# [10] = system: RV-B14-FLuc; assay type: cell-based, rhinovirus B14; details: up to 1 µM, Huh-7.5 cells
# [11] = system: PeV-A1-NLuc; assay type: cell-based, human parechovirus A1; details: A549 cells
# [12] = system: HAV IRES; assay type: cell-based, Hepatitis A virus; details: 100 nM
# [13] = system: 3C^pro; assay type: cell-based, Hepatitis A virus
# [14] = system: 3C^pro; assay type: cell-based, Hepatitis A virus; remark: listed apart in the source
# [15] = system: 18f virus; assay type: cell-based, Hepatitis A virus; details: cells infected 72 h, then treated 24 h
# [16] = system: ACC1; assay: Immunoblot of ACC1 in Huh-7.5 cells; assay type: cell-based, human; details: 200 nM, 24 hours
# [17] = system: HAV; details: FRhK4 fetal rhesus kidney cells; ref 16 Aragonès et al.; read-out: IC50, HAV replication; cited from earlier work
# [18] = system: poliovirus; details: HeLa S3 cells; read-out: IC50, poliovirus replication; cited from earlier work
# [19] = in vitro; details: human, CC50, Huh-7.5 cells, cellular ATP assay
# [20] = in vitro; details: rhesus monkey, CC50, FRhK4 cells
# [21] = system: HM175/18f virus; assay: microbe, parasite or virus in culture; details: Hepatovirus A
# [22] = system: 18f-NLuc reporter virus; assay: microbe, parasite or virus in culture; details: Hepatovirus A, Huh7.5, 48 h, read-out: IC50, HAV replication by NLuc
# [23] = system: Huh-7.5.1 cells; assay: Cell viability in the chemical screen (Cell TiterGlo); details: 10 µM compound, 72 h
smiles,measurement,setting,value
COC1=C2C[C@@H](C)C[C@H](OC)[C@H](O)[C@@H](C)/C=C(\C)[C@H](OC(N)=O)[C@@H](OC)/C=C\C=C(/C)C(=O)NC(=CC1=O)C2=O [Geldanamycin],activity at 10 µM,[1],0.0718%
same,inhibition at 0.03 µM,[2],> 50%
same,IC50,[3],4.3 nM
same,IC50,[4],4.7 nM
same,IC50,[5],804 nM
same,IC50,[6],183 nM
same,IC50,[7],> 10 µM
same,NLuc expression at 48 hours post-infection,[8],neither case did either HSP90 inhibitor reduce NLuc expression
same,Replication of subgenomic HAV RNA replicon (in words),[9],potently inhibited
same,IC50,"[9]; Hepatovirus A, Huh7.5, 24 h, read-out: IC50, HAV-FLuc replicon",29.1 nM
same,Luciferase expression from subgenomic rhinovirus B14 replicon (in words),[10],does not inhibit
same,Luciferase expression from subgenomic rhinovirus B14 replicon (in words),[10]; listed as geldanamycin,fails to inhibit
same,Replication of subgenomic human parechovirus A1 replicon (in words),[11],minimally inhibits; also recorded: resistant
same,GFP synthesis from circRNA HAV IRES reporter,[12],had no effect
same,GFP synthesis from circRNA HAV IRES reporter,[12]; listed as geldanamycin,neither geldanamycin nor 17-AAG inhibited
same,Inhibition of 3ABCD processing,[13]; 0.1 µM,no inhibition
same,Amount of 3ABC product from HA-3ABCD,[13]; 1 µM,modestly reduced
same,Cleavage of GFP-MAVS by 3ABC,[14],no impact
same,VP1 and 3ABC proteins in infected cell lysates,[15],concentration-related decreases
same,Abundance of ACC1,[16],did not reduce
same,IC50,[17],5.37 µM
same,IC50,[18],110 nM
same,CC50,[19],5.1 µM
same,CC50,[20],> 10 µM
same,CC50,[20]; cellular ATP assay,59 µM
same,IC50,"[21]; Huh7.5, in Homo sapiens, read-out: 50% inhibitory concentration, HAV replication",8.7 to 11.8 nM
same,IC50,"[21]; Huh-7.5.1, read-out: IC50, HAV replication by RT-qPCR",11.8 nM
same,IC50,[22],8.7 nM
same,Viability Percent DMSO,[23],61 Percent DMSO

# Reference: article PMC12282101, “Heat shock protein 90 chaperone activity is required for hepatitis A virus replication” (Journal of Virology, 2025)
